Where a name gives a salt, the structure may show the parent alone.
Experiments:
Type in all cases: cell-based
[1] = tested on: IL-6 production in A549 cells (human lung epithelial cell line); assay: Inhibitory activity on IL-6 production (TNF-α-stimulated A549 cells, ELISA); conditions: TNF-α stimulation, incubation for 24 hours, IL-6 in supernatant by ELISA
Protocol: (§1) (1) Assaying Inhibitory Activity on IL-6 Production and Cellular Toxicity
(§2) 1.5×10^4 of A549 cells (human lung epithelial cell line) were suspended in dalbeco-modified eagle medium (DMEM) containing 0.5% fetus bovine serum (abbreviated as FBS)˜(100 μl) and incubated in 96 well-microplate over day and night. The test compound dissolved in various kinds of solvents at various concentrations (20 μl) and Tumor Necrosis Factor-α (TNF-α (Genzyme Co, Cat. No. TNF-H)) dissolved in DMEM at the concentration of 12.5 ng/ml (80 μl) were added thereto. After incubation for 24 hours, the supernatant (200 μl) was recovered to assay the quantity of IL-6 using Enzyme Linked Immuno […] Assay (ELISA) Method (R&D Systems Co., Cat. No. D6050), to calculate inhibitory activity of the test compound and determine 50% inhibitory concentration (IC50). To the cells from which the supernatant was removed, a solution of brom 3-(4,5-dimethyl-2-thiazolyl)-2,5-diphenyl-2H-tetrazolinium (abbreviated as MTT (Dojin Chemical Laboratory, Cat. No. 345-01821)) dissolved in DMEM containing 10% FBS at the concentration of 0.5 mg/ml (100 μl) was added and incubated for 3 hours. After removing MTT solution, methanol (100 μl) was added thereto. After lyse the cells, the intensity of absorbance on 570 nm as a control of 690 nm was determined to assay cellular toxicity of the test compound.

[2] = tested on: A549 cells (human lung epithelial cell line); assay: Cellular toxicity in A549 cells (MTT); conditions: at 10 μM
Protocol: as §1, §2

[3] = tested on: IL-12 production in peripheral monocyte prepared from healthy human blood; assay: Inhibitory activity on IL-12 production (IFN-γ/LPS-stimulated peripheral monocyte, ELISA); conditions: IFN-γ 24 hours then LPS 20 hours, IL-12 in supernatant by ELISA
Protocol: (§3) (2) Assaying Inhibitory Activity on IL-12 Production and Cellular Toxicity
(§4) 2.0×10^5 of peripheral monocyte prepared from healthy human blood by Ficole gravity centrifugation method (Pharmacia Biotech Co, Cat. No. 17-1440-02) were suspended in RPMI1640 medium containing 10% FBS (170 μl). The test compound dissolved in various kinds of solvents at the various concentrations (10 μl) and 6000 units/ml of Interferon-γ (IFN-γ (Serotec Co, Cat. No. PHP050)) (10 μl) dissolved in RPMI1640 medium containing 10% FBS. After incubation for 24 hours in 96 well-microplate, lipopolysaccharide (6 μg/ml) dissolved in RPMI1640 medium containing 10% FBS (LPS (Difco Co., Cat. No. 3120-25-0)) (10 μl) was added thereto. After incubation for 20 hours, the supernatant (150 μl) was recovered to assay the quantity of IL-12 using ELISA Method (R&D Systems Co, Cat. No. D1200), calculate for inhibitory activity of the test compound and determine 50% inhibitory concentration (IC50) (see J. Exp. Med., 183, 147 (1996)). To the cells from which the supernatant (150 μl) was removed, a solution of MTT dissolved in RPMI1640 medium containing 10% FBS at 1 mg/ml (50 μl) was added and incubated for 3 hours. 2-Propanol containing 0.04N HCl (100 μl) was added thereto. After lyse the cells, the intensity of absorbance on 570 nm as a control of 690 nm was determined to assay cellular toxicity of the test compound.

[4] = tested on: peripheral monocyte prepared from healthy human blood; assay: Cellular toxicity in peripheral monocyte (MTT); conditions: at 1 μM
Protocol: as §3, §4

SMILES	IC50 [1]	cellular toxicity [2]	IC50 [3]	cellular toxicity [4]
O=S1(=O)CC(S(=O)(=O)c2ccccc2)c2c(OCc3cccnc3)cccc21 (stereo not shown) [Example 20(4) free compound, 4-(Pyridin-3-ylmethyl) oxy-3-phenylsulfonyl-2,3-dihydro-1,1-dioxidebenzo[b]thiophene]	4400 nM	no cellular toxicity		
O=S1(=O)CC(S(=O)(=O)c2ccccc2)c2c(OCc3cccnc3)cccc21 (stereo not shown) [Example 20(4) hydrochloride, 4-(Pyridin-3-ylmethyl) oxy-3-phenylsulfonyl-2,3-dihydro-1,1-dioxidebenzo[b]thiophene]			110 nM	no cellular toxicity

From patent US6420391B1, “Fused thiophone derivatives and drugs containing the same as the active ingredient” (Ono Pharmaceutical Co., Ltd., priority 1998, dated 2002)
